Data reported in patent US5658906A, “Cysteine protease and serine protease inhibitors” (Cephalon, Inc., priority 1996, dated 1997).

What was measured:
Calpain I = molecular target: T1, Calpain I (Homo sapiens, UniProt P07384); experiment: Inhibition and rate of inactivation of calpain I (Succ-Leu-Tyr-MNA hydrolysis); type: biochemical; details: mean of three or more independent analyses, corrected for substrate, k2 = kapp(1+[S]/Km), read-out: k2 (second order rate constant of inactivation), A = Calpain I
T1 construct: Calpain I was purified from human red blood cells; from tissue; host or cells: human red blood cells (packed, outdated)
T1 sequence (P07384 1-714): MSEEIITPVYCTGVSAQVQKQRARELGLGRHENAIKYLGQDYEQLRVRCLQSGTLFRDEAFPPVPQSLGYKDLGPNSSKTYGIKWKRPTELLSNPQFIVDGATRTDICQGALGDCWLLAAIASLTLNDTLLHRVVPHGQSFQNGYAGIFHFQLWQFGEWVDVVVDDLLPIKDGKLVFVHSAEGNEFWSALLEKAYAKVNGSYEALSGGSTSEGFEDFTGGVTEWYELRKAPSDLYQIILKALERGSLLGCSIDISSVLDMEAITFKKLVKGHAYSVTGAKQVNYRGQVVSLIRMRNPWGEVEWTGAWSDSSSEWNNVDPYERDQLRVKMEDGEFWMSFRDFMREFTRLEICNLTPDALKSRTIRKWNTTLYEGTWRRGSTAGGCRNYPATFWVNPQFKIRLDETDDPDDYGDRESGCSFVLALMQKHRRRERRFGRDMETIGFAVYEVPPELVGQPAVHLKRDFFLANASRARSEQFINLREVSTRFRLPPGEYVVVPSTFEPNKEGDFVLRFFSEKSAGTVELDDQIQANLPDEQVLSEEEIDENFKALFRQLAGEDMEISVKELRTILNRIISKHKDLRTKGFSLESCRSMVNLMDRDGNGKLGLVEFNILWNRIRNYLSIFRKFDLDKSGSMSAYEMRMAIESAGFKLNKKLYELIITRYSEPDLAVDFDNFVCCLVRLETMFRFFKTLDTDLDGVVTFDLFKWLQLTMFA
T1 sequence (P04632 1-268 partner): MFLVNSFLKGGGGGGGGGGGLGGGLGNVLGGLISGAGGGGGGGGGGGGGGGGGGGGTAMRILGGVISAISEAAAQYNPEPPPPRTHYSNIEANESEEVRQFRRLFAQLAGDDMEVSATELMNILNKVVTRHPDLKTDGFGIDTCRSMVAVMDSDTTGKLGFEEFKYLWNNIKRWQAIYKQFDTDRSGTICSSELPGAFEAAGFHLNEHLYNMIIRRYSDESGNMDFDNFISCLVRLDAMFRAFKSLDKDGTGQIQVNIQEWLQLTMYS
Description: To evaluate inhibitory activity of our compounds, stocks (40 times concentrated) of each compound to be tested were prepared in 100% anhydrous dimethyl sulfoxide (DMSO) and 5 μl of each inhibitor preparation was aliquoted into each of three wells of a 96 well plate. Calpain I was purified from human red blood cells using a modification of the method described by Lee, W. J. et al. (Biochem. Internatl. (1990)22(1): 163-171). Briefly, 3 units of packed outdated red blood cells were washed 3× by repeated centrifugation at 500 rpm for 10 minutes through 900 mls of 0.9% NaCl. Cells were lysed in 20 mM Tris/1 mM EDTA/1 mM EGTA/5 mM mercaptoethanol (Buffer A) and centrifuged for 1 hour at 12,000 rpm in a GSA rotor using a Sorval centrifuge. The supernatant was collected and applied to a DEAE-sepharose FF column equilibrated in Buffer A+25 mM NaCl. After washing the column in Buffer A+25 mM NaCl, the bound protein was eluted at 117 ml/hr with a 25 mM to 150 mM NaCl linear gradient in Buffer A collecting 200, 10 mL fractions. Two μl of every fifth fraction was applied to nitrocelluose using a dot blot apparatus and calpain containing fractions identified by Western analysis. For detection of calpain, nitrocellulose sheets were first blocked in 5% Blotto (5% Carnation instant milk/10 mM Tris/[…]150 mM NaCl) for 30 minutes, followed by incubation for 1 hour in antibody directed against Calpain I (rabbit anti-human calpain I polyclonal sera, 1:1000 dilution in 5% Blotto). After three 5 minutes washes in 10 mM Tris/150 mM NaCl/0.05% Tween 20 the nitrocellulose was incubated for 1 hour in secondary alkaline phosphatase conjugated antibody (Biorad Cat#170-6518 1:2000 in 5% Blotto). After three 5 minutes washes in 10 mM Tris/150 mM NaCl/0.05% Tween 20 and 1 wash in 10 mM Tris/150 mM NaCl the nitrocellulose was incubated for up to 2 hours in a colorimetric substrate solution (Biorad Alkaline Phosphatase Substrate conjugate kit, cat#170-6432). The reaction was stopped by washing in water. After fractions containing calpain, and those in between, were pooled, solid ammonium sulfate was added to achieve a 30% solution and the mixture stirred for 1 hour at 4° C. Following collection of the precipitate by centrifugation for 1 hour at 4° C. at 12K rpm in a GSA rotor, the supernatant was collected and brought to 45% in ammonium sulfate. After stirring for 1 hour at 4° C., centrifugation was repeated. The supernatant was discarded and the precipitate resuspended in approximately 7 mls and dialyzed overnight at 4° C. against Buffer A+50 mM NaCl. The sample was then applied to a S300 gel filtration column preequilibrated in Buffer A+50 mM NaCl, washed and eluted at a flow rate of 20 ml/hr, collecting 200, 4 ml fractions. The peak of calpain was determined by assaying aliquots of every fifth fraction for enzyme activity monitored by the hydrolysis of a fluorogenic dipeptide substrate as described below. The peak fractions were pooled and the enzyme preparation used to test compounds for inhibitory activity. As an alternate to enzyme isolated from tissue sources, recombinant human calpain I has also been used to monitor compounds for inhibitory activity.
The foregoing enzyme preparation was diluted into assay buffer (i.e., 50 mM Tris, 50 mM NaCl, 1 mM EDTA, 1 mM EGTA, and 5 mM β-mercaptoethanol, pH 7.5 including 0.2 mM Succ-Leu-Tyr-MNA) and 175 μl aliquoted into the same wells containing the independent inhibitor stocks as well as to positive control wells containing 5 μl DMSO, but no compound. To start the reaction, 20 μl of 50 mM CaCl2 in assay buffer was added to all wells of the plate, excepting three, which were used as background signal baseline controls. Substrate hydrolysis was monitored every 5 minutes for a total of 30 minutes using Flouroskan II (ex=340 nm; em=430 nm). Substrate hydrolysis in the absence of inhibitor was linear for up to 15 minutes. […]

Cathepsin B = molecular target: T2, Cathepsin B (Homo sapiens, UniProt P07858); experiment: Inhibition and rate of inactivation of cathepsin B (Cbz-Phe-Arg-AMC hydrolysis); type: biochemical; details: pH 6.0, 0.1 mM substrate, read-out: k2 (second order rate constant of inactivation), C = Cathepsin B
T2 construct: purchased Calbiochem 219364
Description: Additionally, the order of reagents added to the plate was altered because both enzymes are constitutively active. Following inhibitor addition to the plates appropriate 2× concentrated stock dilutions of the enzyme preparations were made in assay buffer and 100 ul added to each well. The assay was initiated by addition of 100 ul of 2× concentrated stock dilution of substrate in assay buffer. Substrate hydrolysis was monitored using a Fluroskan II (ex=390 nm; em=460 nm).
Inhibition of enzyme activity was calculated as the percent decrease in the rate of substrate hydrolysis in the presence of inhibitor (.upsilon.i) relative to the rate in its absence (.upsilon.o). Comparison between .upsilon.o and .upsilon.i was made within the linear range for substrate hydrolysis. For screening, compounds were tested at 10 μM. Compounds having ≥50% inhibition at 10 μM were considered active. Apparent second order rate constants were determined from analysis of reaction progress curves under pseudo-first order conditions. Each determination represents the mean of three or more independent single cuvette analyses continually monitored via a Perkin-Elmer LS50B spectrofluorimeter. The rate of inhibition of hydrolysis was obtained by fitting the curve to the exponential equation (1):
y=Ae^-k.spsb.obs·t +B (1)
where y (Pt) is the product formed at time t. A and B are constants. A, the amplitude of the reaction, is given by [Po -P.varies. ] and B (=P.varies.) is the maximal product formed when the reaction is […]. This was corrected for the presence of equation (2): […]

Row | kinact/KI (Calpain I) [M⁻¹ s⁻¹] | kinact/KI (Cathepsin B) [M⁻¹ s⁻¹] | Compound
1 | 157000 | – | CC(C)C[C@H](NC(=O)OCc1ccccc1)C(=O)N[C@@H](Cc1ccccc1)C(=O)COn1nnc2c(Cl)cccc21 [Example 14, 1-[N-[N-Benzyloxycarbonyl-L-leucyl]-3S-4-phenyl-3-amino-2-oxybutyloxy]-4'-chlorobenzotriazole]
2 | 116000 | 29000 | Cc1cc2c(cc1Cl)nnn2OCC(=O)[C@H](Cc1ccccc1)NC(=O)[C@H](CC(C)C)NC(=O)OCc1ccccc1 [Example 13, 1-[N-[N-Benzyloxycarbonyl-L-leucyl]-3S-4-phenyl-3-amino-2-oxobutyloxy]-5'-chloro-6'methylbenzotriazole]
3 | 1800 | 10000 | CC(C)C[C@H](NC(=O)OCc1ccccc1)C(=O)N[C@@H](Cc1ccccc1)C(=O)COn1nnc2c(Cl)cc(Cl)c(Cl)c21 [Example 21, 1-[N-[N-Benzyloxycarbonyl-L-leucyl]-3S-4-phenyl-3-amino-2-oxybutyloxy]-4',6',7'-trichlorobenzotriazole]
4 | 77000 | 16000 | CC(C)C[C@H](NC(=O)OCc1ccccc1)C(=O)N[C@@H](Cc1ccccc1)C(=O)COn1nnc2ccc(-c3ccccc3)cc21 [Example 15, 1-[N-[N-Benzyloxycarbonyl-L-leucyl]-3S-4-phenyl-3-amino-2-oxybutyloxy]-6'-phenylbenzotriazole]
5 | 1300 | – | CC(C)C[C@H](NC(=O)OCc1ccccc1)C(=O)N[C@@H](Cc1ccccc1)C(=O)COn1nnc2c(Cl)c(Cl)c(Cl)c(Cl)c21 [Example 20, 1-[N-[N-Benzyloxycarbonyl-L-leucyl]-3S-4-phenyl-3-amino-2-oxybutyloxy]-4',5'6',7'-tetrachlorobenzotriazole]
6 | 46000 | – | CC(C)C[C@H](NC(=O)[C@H](CC(C)C)NC(=O)OCc1ccccc1)C(=O)COn1nnc2ccccc2c1=O [Example 31, 1-[N-[N-Benzyloxycarbonyl-L-leucyl]-3S-5-methyl-3-amino-2-oxohexyloxy]-3-benzotriazin-4-one]
7 | 64000 | – | CC(C)C[C@H](NC(=O)OCc1ccccc1)C(=O)N[C@@H](Cc1ccccc1)C(=O)COn1nnc2c(Cl)c(Cl)ccc21 [Example 23, 1-[N-[N-Benzyloxycarbonyl-L-leucyl]-3S-4-phenyl-3-amino-2-oxybutyloxy]-4',5'-dichlorobenzotriazole]
8 | 230000 | – | Cc1ccc2c(c1)nnn2OCC(=O)[C@H](Cc1ccccc1)NC(=O)[C@H](CC(C)C)NC(=O)OCc1ccccc1 [Example 27, 1-[N-[N-Benzyloxycarbonyl-L-leucyl]-3S-4-phenyl-3-amino-2-oxobutyloxy]-5'-methylbenzotriazole]
9 | 171000 | – | COc1cc2nnn(OCC(=O)[C@H](Cc3ccccc3)NC(=O)[C@H](CC(C)C)NC(=O)OCc3ccccc3)c(=O)c2cc1OC [Example 29, 1-[N-[N-Benzyloxycarbonyl-L-leucyl]-3S-4-phenyl-3-amino-2-oxobutyloxy]-3-(6',7'-dimethoxy)benzotriazin-4-one]
10 | 3000 | – | CC[C@H](C(=O)C[C@@H](CC(C)C)C(=O)N[C@@H](Cc1ccccc1)C(=O)COn1nnc2ccccc21)c1ccccc1 [Example 46, 1-[N-[2R-(2-methylpropyl)-1,4-dioxo-5S-phenylheptan-1-yl]-3S-3-amino-2-oxo-4-phenylbutyloxy]benzotriazole]
11 | 164000 | – | CC(C)C[C@H](NC(=O)OCc1ccccc1)C(=O)N[C@@H](Cc1ccccc1)C(=O)COn1nnc2cc(Cl)ccc21 [Example 17, 1-[N-[N-Benzyloxycarbonyl-L-leucyl]-3S-4-phenyl-3-amino-2-oxybutyloxy]-5'-chlorobenzotriazole]
12 | 112000 | – | Cc1ccc2nnn(OCC(=O)[C@H](Cc3ccccc3)NC(=O)[C@H](CC(C)C)NC(=O)OCc3ccccc3)c2c1 [Example 26, 1-[N-[N-Benzyloxycarbonyl-L-leucyl]-3S-4-phenyl-3-amino-2-oxobutyloxy]-6'-methylbenzotriazole]
13 | 84000 | 30000 | CCc1cc2c(cc1Cl)nnn2OCC(=O)[C@H](Cc1ccccc1)NC(=O)[C@H](CC(C)C)NC(=O)OCc1ccccc1 [Example 24, 1-[N-[N-Benzyloxycarbonyl-L-leucyl]-3S-4-phenyl-3-amino-2-oxybutyloxy]-5'-chloro-6'-ethylbenzotriazole]
14 | 180000 | – | CC(C)C[C@H](NC(=O)OCc1ccccc1)C(=O)N[C@@H](Cc1ccccc1)C(=O)COn1nnc2ccc(Cl)cc2c1=O [Example 30, 1-[N-[N-Benzyloxycarbonyl-L-leucyl]-3S-4-phenyl-3-amino-2-oxobutyloxy]-3-(6'-chloro)benzotriazin-4-one]
15 | 65000 | 115000 | CC(C)C[C@H](NC(=O)OCc1ccccc1)C(=O)N[C@@H](Cc1ccccc1)C(=O)COn1nnc2cc(Cl)c(Cl)cc21 [Example 18, 1-[N-[N-Benzyloxycarbonyl-L-leucyl]-3S-4-phenyl-3-amino-2-oxybutyloxy]-5',6'-dichlorobenzotriazole]
